Assays:
[1] = Recovery of PC206 from quarter milk after intramammary infusion; format: in vivo; conditions: cows
Experimental: The innocuity of PC206 was evaluated in cows, as previously described for other test substances. Following morning milking, each of the four mammary gland quarters […] was infused with various doses of PC206 (100, 250, 500 mg) or saline as a negative control. […] Cows were milked using an individual quarter-milking unit in order to measure individual quarter-milk production. PC206 concentration in milk was also measured; milk samples were diluted with an equal volume of isopropanol and washed 3 times with hexane. PC206 was extracted using ethyl acetate, filtered on Na2SO4, and evaporated. The dried samples were diluted 80:20 in ACN:H2O containing an internal standard. The content of PC206 was determined using single-ion monitoring (SIMS) on UPLC-MS.

[2] = tested on: guanine riboswitch-lacZ fusion construct (xpt-lacZ); assay: Riboswitch regulation assay (lacZ-gene reporter); format: cell-based, B. subtilis; conditions: 64 µg/mL
Source text: The novel pyrimidine compounds, especially PC206, display specificity and potency against some staphylococci but not the other bacterial genus (Table 1 and Table 2). Because they are structurally derived from PC1 and PC2, these novel antibiotic candidates are expected to have the same mode of action. […] To verify this hypothesis, a strain of B. subtilis with a guanine riboswitch-lacZ fusion construct (named xpt-lacZ) integrated in its chromosome was exposed to these new antimicrobials. […] Therefore, it is an adequate reporter species. The metabolization of substrate ONPG into colored ONP was normalized by the bacterial suspension absorbance at 600 nm (Miller units) and relativized to the untreated condition.
β-galactosidase gene expression in the presence of the new pyrimidine analogs was studied, using an xpt-lacZ transcriptional fusion construct integrated in the genome of B. subtilis as previously described. Briefly, cultures were grown for 5 h at 35 °C in CAMHB, from an initial optical density of 0.05 at 600 nm (OD600), and then diluted 1:20 and in the presence of different concentrations of the compounds tested. Cultures were centrifuged for 10 min at 13,100 rpm, the supernatant was discarded, and pellets were suspended in a Z-buffer (NaH2PO4 40 mM, Na2HPO4 60 mM, MgSO4 1 mM, KCl 10 mM). Cultures OD600 were measured, and bacteria were then lysed with lysozyme (1 mg/mL) and β-mercaptoethanol 50 mM for 30 min. Lysates were centrifuged for 10 min at 13,100 rpm, and supernatants were incubated for 5 min at 30 °C with the substrate orthonitrophenyl-β-galactoside (ONPG; Sigma Aldrich). Reactions were stopped with Na2CO3 1M, supernatants OD420 were measured, and Miller units were calculated. A decrease in β-galactosidase activity indicated binding of the test compound to the riboswitch. Guanine and oxacillin were used as […] controls, respectively. The formula to measure Miller units is as follows: Millerunits=1000×OD420/t·v·OD600
Here, t represents the time of incubation with ONPG, and v represents the volume of the reaction.

[3] = Chemical stability; format: physicochemical
[4] = tested on: S. aureus Newbould, S. aureus CMRSA-10, S. epidermidis ATCC 12228; assay: Kill kinetics; format: cell-based, staphylococci
Experimental: Time-kill kinetics studies were performed to define the bactericidal effect of PC206. S. aureus Newbould, CMRSA-10, or S. epidermidis ATCC 12228 were inoculated at a density of approximately 5 × 10^5 CFU/mL in CAMHB in the absence or presence of PC206 and were incubated with agitation (225 rpm) for 24 h at 35 °C. Right before inoculation and 0.5, 1, 2, 4, 8 and 24 h thereafter, bacterial cultures were sampled, serially diluted, and plated on tryptic soya agar (TSA) plates that were incubated at 35 °C for 24 h to determine viable counts with a detection limit of 2 log10 CFU/mL.

[5] = MTT assay; format: cell-based; conditions: human, HepG2 cells

## CCCCCCNc1cc(N)nc(N)n1 [PC206]
[1]; single intramammary infusion of 100 mg
  Time the concentration in quarter milk remained above the MIC (8 µg/mL): over 2 h
[1]; single intramammary infusion of 250 mg
  Time the concentration in quarter milk remained above the MIC (8 µg/mL): > 4 h
[1]; single intramammary infusion of 500 mg
  Time the concentration in quarter milk remained above the MIC (8 µg/mL): about 8 h
[2]
  Miller units remaining, relative to the untreated condition: 35%
[3]
  Stability in solution: remains stable in solution
[4]; 4× MIC
  Reduction of bacterial viable counts at 24 h compared to the initial inoculum: 0.5–1.5 log10 CFU/mL
[4]; up to 4× MIC, 24 h
  Qualification from kill kinetics: bacteriostatic agent
[5]
  CC50 at 24 h: 160 ± 31 µM

Reference: article PMC10451377, “Rationally Designed Pyrimidine Compounds: Promising Novel Antibiotics for the Treatment of Staphylococcus aureus-Associated Bovine Mastitis” (Antibiotics, 2023)
